Experimental data from patent US20250313546A1, “NUCLEIC ACID BINDERS” (UNIVERSITY OF STRATHCLYDE, priority 2022, published 2025).
pIC50: −log10 of the molar value. Values after ≈ are worked out from the molar mass of the structure shown.

Experiments:
C. neoformans (F10025) = conditions: Cryptococcus neoformans, read-out: MIC99 C. neoformans
Description: The Minimum Inhibitory Concentration (MIC, at 99% inhibition) of the compounds was determined using the broth microdilution method as recommended by EUCAST (EUCAST Definitive Document E.DEF 9.3.2, Method for the determination of broth dilution minimum inhibitory concentrations of antifungal agents for conidia forming moulds and EUCAST Definitive Document E.DEF 7.3.2 Method for the determination of broth dilution minimum inhibitory concentrations of antifungal agents for yeasts).

[1] = tested on: A. fumigatus A1160 (MFIG001); conditions: Aspergillus fumigatus, read-out: MIC99 A. fumigatus A1160
[2] = tested on: Enterococcus faecalis (ATCC 51299); experiment: Antibacterial MIC, broth microdilution (CLSI); type: cell-based; conditions: for MIC80: Enterococcus faecalis, ATCC51299, read-out: MIC80 E. faecalis; for E. faecalis Selectivity Indices, Group: Quaternary ammoniums
[3] = tested on: Candida glabrata (ACPF3309); conditions: Nakaseomyces glabratus, read-out: MIC99 Candida glabrata
[4] = tested on: Escherichia coli (ATCC 25922); experiment: Antibacterial MIC, broth microdilution (CLSI); type: cell-based; conditions: Escherichia coli, ATCC25922; read-out: MIC80 E. coli
[5] = tested on: Genomic double stranded DNA (salmon); experiment: Fluorescence intercalator displacement (FID) assay, SYBR-safe probe; conditions: 20 μM compound, 30° C., lower % = stronger binding
Description: (§1) The ability of compounds of the invention to bind to DNA and RNA was assessed using a fluorescence intercalator displacement assay. Genomic double stranded DNA (salmon) or PolyAU double stranded RNA is treated with probe molecule (Sybr-Safe) that increases its fluorescence upon binding to nucleic acids.
(§2) polyAU RNA (Polyadenylic acid—Polyuridylic acid sodium salt, double-stranded homopolymer, P1537, Merck) or genomic DNA (Deoxyribonucleic acid sodium salt from salmon testes, D1626, Merck) was dissolved in 1 mM pH 7.4 phosphate buffer (containing 0.27 mM potassium chloride, 13.7 mM sodium chloride) to a concentration of 1 mg/mL in, SybrSafe (SYBR® Safe DNA Gel Stain, ×10,000 in DMSO, S33102 Invitrogen) was used as supplied by the manufacturer in DMSO, and compounds of the invention were prepared as 10 mM stocks in DMSO. These stock solutions were diluted appropriately with each other and 1 mM phosphate buffer to give test solutions comprised of 20 μM compound of the invention, 12500-fold dilution of SybrSafe and 3.76 ng/mL RNA/DNA. Control solutions of RNA/DNA and SybrSafe, RNA/DNA, and SybrSafe at these concentrations were also prepared. Test and control solutions were heated to 30° C. and the fluorescence of each solution was measured using the SYBER filter setting of a StepOnePlus using melt analysis mode (StepOne Software v2.3). The reduction of fluorescence due to the binding of the compound of the invention to the RNA/DNA was calculated as a normalised percentage based on the fluorescence measured due to the control with SybrSafe and RNA/DNA as maximum and the control with only SybrSafe as minimum.
(§3) A reduction in normalised % is indicative of probe displacement and thus strong nucleic acid binding.

[6] = tested on: PolyAU double stranded RNA; experiment: as above; conditions: 20 μM compound, 30° C., lower % = stronger binding
Description: as §1, §2, §3

[7] = tested on: Staphylococcus aureus (ATCC 43300); experiment: Antibacterial MIC, broth microdilution (CLSI); type: cell-based; conditions: for MIC80: Staphylococcus aureus, ATCC43300, read-out: MIC80 S. aureus; for S. aureus Selectivity Indices, Group / S. aureus Selectivity Index (SI): SI, IC50 (μM)/MIC80 (μM), HEK293 cytotoxicity; for S. aureus Selectivity Index (SI): numeric value
T. vaginalis = experiment: Trichomonas resorufin assay; type: cell-based; conditions: for pIC50: Trichomonas vaginalis, read-out: IC50 T. vaginalis; for T. vaginalis Selectivity Indices, Group / T. vaginalis Selectivity Index (SI): SI, IC50 (μM)/IC50 (μM), HEK293 cytotoxicity; for T. vaginalis Selectivity Indices, Group: Quaternary ammoniums; for T. vaginalis Selectivity Index (SI): numeric value
[8] = SI, IC50 (μM)/MIC80 (μM), HEK293 cytotoxicity

Compound | MIC99 (C. neoformans (F10025)) | MIC99 [1] | MIC80 [2] | MIC99 [3] | MIC80 [4] | % Normalised Fluorescence with gDNA [5] | % Normalised Fluorescence with polyAU RNA [6] | MIC80 [7] | pIC50 (T. vaginalis) | S. aureus Selectivity Indices, Group ([7]; Alkyl Amidines and NH Pyrroles) | T. vaginalis Selectivity Indices, Group (T. vaginalis) | T. vaginalis Selectivity Index (SI) (T. vaginalis) | E. faecalis Selectivity Indices, Group [2, 8] | E. faecalis Selectivity Index (SI) ([2]; SI, IC50 (μM)/MIC80 (μM), HEK293 cytotoxicity, numeric value) | S. aureus Selectivity Indices, Group ([7]; Quaternary ammoniums) | S. aureus Selectivity Index (SI) [7]
CN(C)CCCN(CCCN(C)C)C(=O)c1cc(NC(=O)c2cc(NC(=O)c3ccc(/C=C/c4cnc5ccccc5c4)cc3)cn2C)cn1C [IVa9, (E)-N,N-bis(3-(dimethylamino)propyl)-1-methyl-4-(1-methyl-4-(4-(2-(quinolin-3-yl)vinyl)benzamido)-1H-pyrrole-2-carboxamido)-1H-pyrrole-2-carboxamide] | 25 to 50 µg/mL (≈ 36.3 to 72.6 µM) | > 50 µg/mL | > 100 µM | 25 to 50 µg/mL (≈ 36.3 to 72.6 µM) | > 100 µM | 3% | 4% | 25 to 100 µM (≈ 17.2 to 68.9 µg/mL) |  |  |  |  |  |  |  | 
COc1ccc(/C=C/c2ccc(C(=O)Nc3cc(C(=O)Nc4cc(C(=O)NCCC(=N)NC(C)C)n(C)c4)n(C)c3)cc2)cc1 [Ia18, (E)-N-(3-imino-3-(isopropylamino)propyl)-4-(4-(4-(4-methoxystyryl)benzamido)-1-methyl-1H-pyrrole-2-carboxamido)-1-methyl-1H-pyrrole-2-carboxamide] | 5 to 25 µg/mL (≈ 8.2 to 41 µM) | > 50 µg/mL | 5 to 25 µM (≈ 3.05 to 15.2 µg/mL) |  | 25 to 100 µM (≈ 15.2 to 61 µg/mL) | 6% | 9% | 5 to 25 µM (≈ 3.05 to 15.2 µg/mL) | 4.30 to 5.30 | B (Group B: 3 < SI <= 5) |  |  |  |  |  | 
CC[N+](C)(C)CCNC(=O)c1cc(NC(=O)c2cc(NC(=O)c3ccc(/C=C/c4cnc5ccccc5c4)cc3)cn2C)cn1C [Ic1, (E)-N-ethyl-N,N-dimethyl-2-(1-methyl-4-(1-methyl-4-(4-(2-(quinolin-3-yl)vinyl)benzamido)-1H-pyrrole-2-carboxamido)-1H-pyrrole-2-carboxamido)ethan-1-aminium] | 5 to 25 µg/mL | > 50 µg/mL | < 5 µM | 5 to 25 µg/mL | > 100 µM |  |  | < 5 µM | > 6.00 |  |  |  |  |  |  | 
CCC[N+](C)(C)CCNC(=O)c1cc(NC(=O)c2cc(NC(=O)c3ccc(/C=C/c4cnc5ccccc5c4)cc3)cn2C)cn1C [Ic2, (E)-N,N-dimethyl-N-(2-(1-methyl-4-(1-methyl-4-(4-(2-(quinolin-3-yl)vinyl)benzamido)-1H-pyrrole-2-carboxamido)-1H-pyrrole-2-carboxamido)ethyl)propan-1-aminium] | 5 to 25 µg/mL | > 50 µg/mL | < 5 µM | < 5 µg/mL | > 100 µM |  |  | < 5 µM | > 6.00 |  |  |  |  |  |  | 
CCCC[N+](C)(C)CCNC(=O)c1cc(NC(=O)c2cc(NC(=O)c3ccc(/C=C/c4cnc5ccccc5c4)cc3)cn2C)cn1C [Ic3, (E)-N,N-dimethyl-N-(2-(1-methyl-4-(1-methyl-4-(4-(2-(quinolin-3-yl)vinyl)benzamido)-1H-pyrrole-2-carboxamido)-1H-pyrrole-2-carboxamido)ethyl)butan-1-aminium] | 5 to 25 µg/mL | > 50 µg/mL | < 5 µM | 5 to 25 µg/mL | > 100 µM |  |  | < 5 µM | 5.30 to 6.00 |  | D (Group D: SI > 3) | 6 | D (Group D: SI > 5) | 11 |  | 
CCCCC[N+](C)(C)CCNC(=O)c1cc(NC(=O)c2cc(NC(=O)c3ccc(/C=C/c4cnc5ccccc5c4)cc3)cn2C)cn1C [Ic4, (E)-N,N-dimethyl-N-(2-(1-methyl-4-(1-methyl-4-(4-(2-(quinolin-3-yl)vinyl)benzamido)-1H-pyrrole-2-carboxamido)-1H-pyrrole-2-carboxamido)ethyl)pentan-1-aminium] | 5 to 25 µg/mL | > 50 µg/mL | < 5 µM | 5 to 25 µg/mL | > 100 µM |  |  | < 5 µM | 5.30 to 6.00 |  | D (Group D: SI > 3) | 4 | C (Group C: 2 < SI <= 5) |  | D (Group D: SI > 10) | 11
CCCCCCCC[N+](C)(C)CCNC(=O)c1cc(NC(=O)c2cc(NC(=O)c3ccc(/C=C/c4cnc5ccccc5c4)cc3)cn2C)cn1C [Ic7, (E)-N,N-dimethyl-N-(2-(1-methyl-4-(1-methyl-4-(4-(2-(quinolin-3-yl)vinyl)benzamido)-1H-pyrrole-2-carboxamido)-1H-pyrrole-2-carboxamido)ethyl)octan-1-aminium] | 5 to 25 µg/mL | > 50 µg/mL | > 100 µM | 5 to 25 µg/mL | > 100 µM |  |  | < 5 µM | 4.30 to 5.30 |  |  |  |  |  | D (Group D: SI > 10) | 13
CCCCCCCCC[N+](C)(C)CCNC(=O)c1cc(NC(=O)c2cc(NC(=O)c3ccc(/C=C/c4cnc5ccccc5c4)cc3)cn2C)cn1C [Ic8, (E)-N,N-dimethyl-N-(2-(1-methyl-4-(1-methyl-4-(4-(2-(quinolin-3-yl)vinyl)benzamido)-1H-pyrrole-2-carboxamido)-1H-pyrrole-2-carboxamido)ethyl)nonan-1-aminium] | 25 to 50 µg/mL | > 50 µg/mL | > 100 µM | 5 to 25 µg/mL | > 100 µM |  |  | < 5 µM | 4.30 to 5.30 |  |  |  |  |  | C (Group C: 5 < SI <= 10) | 6
CCCCCCCCCCC[N+](C)(C)CCNC(=O)c1cc(NC(=O)c2cc(NC(=O)c3ccc(/C=C/c4cnc5ccccc5c4)cc3)cn2C)cn1C [Ic10, (E)-N,N-dimethyl-N-(2-(1-methyl-4-(1-methyl-4-(4-(2-(quinolin-3-yl)vinyl)benzamido)-1H-pyrrole-2-carboxamido)-1H-pyrrole-2-carboxamido)ethyl)undecan-1-aminium] | > 50 µg/mL | > 50 µg/mL | > 100 µM | 25 to 50 µg/mL | > 100 µM |  |  | 5 to 25 µM | 4.30 to 5.30 |  |  |  |  |  |  | 
CCCCCCCCCCCC[N+](C)(C)CCNC(=O)c1cc(NC(=O)c2cc(NC(=O)c3ccc(/C=C/c4cnc5ccccc5c4)cc3)cn2C)cn1C [Ic11, (E)-N,N-dimethyl-N-(2-(1-methyl-4-(1-methyl-4-(4-(2-(quinolin-3-yl)vinyl)benzamido)-1H-pyrrole-2-carboxamido)-1H-pyrrole-2-carboxamido)ethyl)dodecan-1-aminium] | > 50 µg/mL | > 50 µg/mL | 25 to 100 µM | 5 to 25 µg/mL | > 100 µM |  |  | 5 to 25 µM | 4.30 to 5.30 |  |  |  |  |  |  | 
CCCCCCCCCCCCCCC[N+](C)(C)CCNC(=O)c1cc(NC(=O)c2cc(NC(=O)c3ccc(/C=C/c4cnc5ccccc5c4)cc3)cn2C)cn1C [Ic14, (E)-N,N-dimethyl-N-(2-(1-methyl-4-(1-methyl-4-(4-(2-(quinolin-3-yl)vinyl)benzamido)-1H-pyrrole-2-carboxamido)-1H-pyrrole-2-carboxamido)ethyl)pentadecan-1-aminium] | > 50 µg/mL | > 50 µg/mL |  | 25 to 50 µg/mL |  |  |  |  | 4.30 to 5.30 |  |  |  |  |  |  | 
CCCCCCCCCCCCCCCC[N+](C)(C)CCNC(=O)c1cc(NC(=O)c2cc(NC(=O)c3ccc(/C=C/c4cnc5ccccc5c4)cc3)cn2C)cn1C [Ic15, (E)-N,N-dimethyl-N-(2-(1-methyl-4-(1-methyl-4-(4-(2-(quinolin-3-yl)vinyl)benzamido)-1H-pyrrole-2-carboxamido)-1H-pyrrole-2-carboxamido)ethyl)hexadecan-1-aminium] | 25 to 50 µg/mL | > 50 µg/mL |  | > 50 µg/mL |  |  |  |  | 4.30 to 5.30 |  |  |  |  |  |  | 
